In patent EP2818472A1, “Imidazo[4,5-c]pyridine and pyrrolo[3,2-c]pyridine compounds as G-protein-coupled receptor kinase 5 (GRK5) modulators” (Max-Planck-Gesellschaft zur Förderung der Wissenschaften …, priority 2013, dated 2014):

Test system: beta-TC6 cells
Assay: Insulin HTRF assay (relative activity Ar) in beta-TC6 cells
Format: cell-based, mouse
Details: Mus musculus, Beta-TC6, 4 h, insulin HTRF, supernatant of beta-TC6 cells, incubation with test compound at 37°C for 2, 3, 4h; read-out: Ar (relative activity)
Source text: For further screening of compounds derived from compounds described above for their ability to regulate insulin release an insulin HTRF® (Homogeneous Time-Resolved Fluorescence; Cisbio International, France) was used. This assay is based on two antibodies against insulin binding to different epitopes of insulin. One of these antibodies is coupled to Europium (Ab-Eu-Cryptate) and the other one to the fluorophore XL665 (Ab-XL665). If the insulin is secreted into the supernatant of cell culture, both antibodies can bind to insulin and come therefore into close proximity, which allows upon excitation that energy transfer between (FRET) the long-life fluorescent donor Europium (cryptate) and the acceptors XL665. FRET increases proportionally with insulin concentration.
The automated assay protocol is as follows: • On day 1, 15k beta-TC6 cells per well were seeded for 24 or 48 h in 50 µL complete medium. On day 2 or respective on day 3, the medium is removed and cells are washed with 60 µL 1xPBS and 20 µL induction buffer is added using BioTek washer. Subsequently, 10 µL Sunitininb (5 -µM f.c.) or the test compound in induction buffer; 0.5% f.c. DMSO (CyBi-well) is transferred to the cells. The cells are then incubated at 37°C for 2, 3, 4h.
First 10 µL supernatant is transferred from the cell plates in HTRF plates (CyBi-well). 10 µL of 0, 1, 2, and 4 ng/ml insulin standard controls in assay medium is used as a control. To each well 10 µL of combined 1:25 Ab-XL665 (Acc) and 1:20 Ab-Eu-Cryptate (WellMate) are added and incubated for 120 min at RT in the dark. Finally HTRF is measured on ViewLux ultra high throughput microplate imager (PerkinElmer).
The evaluation software DataFactoty derives relative activities Ar according to the following equation: Ar = (V-R(0%control))/(R(100%control) -R0%control)) × 100 [formula]
The activity of the compounds was classified according to their Ar (relative activity) into the following ranges: […]

First: COc1ccc(Nc2cc3[nH]c(-c4cccnc4)cc3cn2)cn1 [Compound 75, N-(6-methoxy-3-pyridyl)-2-(3-pyridyl)-1H-pyrrolo[3,2-c]pyridin-6-amine]
Second: COc1ccc(Nc2cc3c(cn2)cc(-c2cccnc2)n3C)cn1 [Compound 86, N-(6-methoxy-3-pyridyl)-1-methyl-2-(3-pyridyl)pyrrolo[3,2-c]pyridin-6-amine]
The Emax of the first is higher: greater than 100% for the first, 50 to 100% for the second.

First: c1cncc(-c2cc3cnc(Nc4ccncc4)cc3[nH]2)c1 [Compound 76, 2-(3-pyridyl)-N-(4-pyridyl)-1H-pyrrolo[3,2-c]pyridin-6-amine]
Second: Clc1ccccc1Nc1cc2[nH]c(-c3cccnc3)cc2cn1 [Compound 78, N-(2-chlorophenyl)-2-(3-pyridyl)-1H-pyrrolo[3,2-c]pyridin-6-amine]
The Emax of the first is lower: 30 to 50% for the first, 50 to 100% for the second.

Compared with `c1cncc(-c2cc3cnc(N4CCOCC4)cc3[nH]2)c1` [Compound 77, 4-[2-(3-pyridyl)-1H-pyrrolo[3,2-c]pyridin-6-yl]morpholine], `CC(=O)Nc1cccc(Nc2cc3[nH]c(-c4cccnc4)cc3cn2)c1` [Compound 80, N-[3-[[2-(3-pyridyl)-1H-pyrrolo[3,2-c]pyridin-6-yl]amino]phenyl]acetamide] is higher in Emax: 50 to 100% for the first, greater than 100% for the second.

`Fc1ccc(C(F)(F)F)cc1Nc1cc2[nH]c(-c3cccnc3)cc2cn1` [Compound 79, N-[2-fluoro-5-(trifluoromethyl)phenyl]-2-(3-pyridyl)-1H-pyrrolo[3,2-c]pyridin-6-amine] and `CC(C)Oc1ccc(Nc2cc3[nH]c(-c4cccnc4)cc3cn2)cc1` [Compound 81, N-(4-isopropoxyphenyl)-2-(3-pyridyl)-1H-pyrrolo[3,2-c]pyridin-6-amine] fall in the same range of Emax: 30 to 50% for the first, 30 to 50% for the second.

`COc1cc(Nc2cc3c(cn2)cc(-c2cccnc2)n3C)cc(OC)c1OC` [Compound 82, 1-methyl-2-(3-pyridyl)-N-(3,4,5-trimethoxyphenyl)pyrrolo[3,2-c]pyridin-6-amine] and `COc1ccc(Nc2cc3c(cn2)cc(-c2cccnc2)n3C)cc1OC` [Compound 85, N-(3,4-dimethoxyphenyl)-1-methyl-2-(3-pyridyl)pyrrolo[3,2-c]pyridin-6-amine] fall in the same range of Emax: 50 to 100% for the first, 50 to 100% for the second.

`COc1ccc(Nc2cc3c(cn2)cc(-c2cccnc2)n3C)c(OC)c1` [Compound 83, N-(2,4-dimethoxyphenyl)-1-methyl-2-(3-pyridyl)pyrrolo[3,2-c]pyridin-6-amine] and `COc1ccc(Nc2cc3c(cn2)cc(-c2cccnc2)n3C)cc1` [Compound 91, N-(4-methoxyphenyl)-1-methyl-2-(3-pyridyl)pyrrolo[3,2-c]pyridin-6-amine] fall in the same range of Emax: 50 to 100% for the first, 50 to 100% for the second.

Compared with `Cn1c(-c2cccnc2)cc2cnc(Nc3ccc4c(c3)OCCO4)cc21` [Compound 84, N-(2,3-dihydro-1,4-benzodioxin-6-yl)-1-methyl-2-(3-pyridyl)pyrrolo[3,2-c]pyridin-6-amine], `Cc1cccc(Nc2cc3c(cn2)cc(-c2cccnc2)n3C)c1` [Compound 90, 1-methyl-N-(m-tolyl)-2-(3-pyridyl)pyrrolo[3,2-c]pyridin-6-amine] is lower in Emax: 50 to 100% for the first, 30 to 50% for the second.

First: Cn1c(-c2cccnc2)cc2cnc(Nc3cccnc3)cc21 [Compound 87, 1-methyl-N,2-bis(3-pyridyl)pyrrolo[3,2-c]pyridin-6-amine]
Second: Cn1c(-c2cccnc2)cc2cnc(Nc3ccccc3)cc21 [Compound 88, 1-methyl-N-phenyl-2-(3-pyridyl)pyrrolo[3,2-c]pyridin-6-amine]
The Emax of the first is higher: 50 to 100% for the first, 30 to 50% for the second.

Compared with `CN(C)c1cccc(Nc2cc3c(cn2)cc(-c2cccnc2)n3C)c1` [Compound 89, N1,N1-dimethyl-N3-[1-methyl-2-(3-pyridyl)pyrrolo[3,2-c]pyridin-6-yl]benzene-1,3-diamine], `Cn1c(-c2cccnc2)cc2cnc(Nc3ccc(F)cc3)cc21` [Compound 92, N-(4-fluorophenyl)-1-methyl-2-(3-pyridyl)pyrrolo[3,2-c]pyridin-6-amine] is lower in Emax: 50 to 100% for the first, 0 to 30% for the second.
